Source: ChEMBL document CHEMBL1201862, “PubChem BioAssay data set” (2004)
The source made the active and inactive calls.

Legend:
[1] = intracellular Trypanosoma cruzi inhibitors in host cells – cell-based, plate reader, cherry-pick samples, set 3, dose response (AID 651818); format: functional;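 note: compounds incubated with infected cells for about four days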
[2] = target: T1, Microphthalmia-associated transcription factor (Homo sapiens, UniProt O75030); assay: reducers of TRPM1 reporter luminescence, concentration series – cell-based, SK-MEL-5, cherry-picked, set 3, MITF inhibitor project, dose response (AID 493073); format: functional;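 note: SK-MEL-5 melanoma cells with luciferase driven by the MITF target TRPM1 promoter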
T1 sequence (O75030 whole entry): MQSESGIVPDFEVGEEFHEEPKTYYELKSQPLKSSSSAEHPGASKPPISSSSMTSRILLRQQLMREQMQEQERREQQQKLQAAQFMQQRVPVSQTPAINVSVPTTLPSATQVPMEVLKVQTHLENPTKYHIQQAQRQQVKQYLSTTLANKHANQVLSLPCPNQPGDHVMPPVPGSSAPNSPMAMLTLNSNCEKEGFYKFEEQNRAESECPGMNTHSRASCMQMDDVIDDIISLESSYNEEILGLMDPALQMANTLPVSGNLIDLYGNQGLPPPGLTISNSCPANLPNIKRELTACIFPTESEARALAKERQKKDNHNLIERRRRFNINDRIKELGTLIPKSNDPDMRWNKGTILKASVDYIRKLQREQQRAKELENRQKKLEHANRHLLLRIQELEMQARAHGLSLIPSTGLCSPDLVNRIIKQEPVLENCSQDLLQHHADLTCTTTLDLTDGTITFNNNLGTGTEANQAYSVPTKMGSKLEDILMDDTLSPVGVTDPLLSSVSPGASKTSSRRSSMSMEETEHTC

[3] = system: HEK293; assay: EBV LMP1 TES2 canonical NF-kB signalling blockers – cell-based, HEK293, luciferase, cherry-pick, dose response (AID 588343); format: functional; settings: Homo sapiens
[4] = Fluorescence-based cell-based high throughput dose response assay for inhibitors of the interaction of nucleotide-binding oligomerization domain containing 2 (NOD2) and the receptor-interacting serine-threonine kinase 2 (RIPK2).; format: functional; settings: Homo sapiens
[5] = target: T2, Rac GTPase-activating protein 1 (Homo sapiens, UniProt Q9H0H5); assay: blockers of MgcRacGAP-driven Rac1 GTP hydrolysis – biochemical, ADP Hunter fluorescence, primary and confirmatory, confirmation (AID 624330); format: functional
T2 sequence (Q9H0H5 whole entry): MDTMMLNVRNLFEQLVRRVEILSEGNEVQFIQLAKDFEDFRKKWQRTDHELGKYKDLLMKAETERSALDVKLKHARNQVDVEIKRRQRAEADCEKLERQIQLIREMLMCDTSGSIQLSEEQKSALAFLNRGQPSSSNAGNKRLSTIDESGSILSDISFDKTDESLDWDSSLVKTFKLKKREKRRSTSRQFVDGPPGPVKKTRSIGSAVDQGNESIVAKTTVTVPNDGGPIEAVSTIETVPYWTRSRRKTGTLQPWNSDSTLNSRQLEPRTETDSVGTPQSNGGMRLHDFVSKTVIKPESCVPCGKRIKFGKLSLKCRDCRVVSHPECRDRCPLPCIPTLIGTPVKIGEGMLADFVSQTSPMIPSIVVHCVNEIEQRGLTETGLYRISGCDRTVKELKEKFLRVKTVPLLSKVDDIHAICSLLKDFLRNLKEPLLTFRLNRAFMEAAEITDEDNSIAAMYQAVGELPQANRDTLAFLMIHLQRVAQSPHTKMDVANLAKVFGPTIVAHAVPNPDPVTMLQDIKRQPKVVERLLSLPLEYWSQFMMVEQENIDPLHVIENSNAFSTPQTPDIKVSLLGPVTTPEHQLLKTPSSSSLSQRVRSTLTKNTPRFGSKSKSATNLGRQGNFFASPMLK

[6] = target: Mitochondrial peptide methionine sulfoxide reductase (Bos taurus, UniProt P54149); format: functional;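 note: absorbance read-out, biochemical high-throughput dose-response screen for MsrA inhibitors, confirmatory; recombinant bovine MsrA coupled to E. coli TrxB with NADPH and selenocystamine; potency is for inhibitors of MsrA activity on DMSO substrate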
[7] = system: BJ; assay: BJ-TERT fibroblast viability loss – cell-based, RAS-independent, luminescence, dose response (AID 1933); format: functional; settings: Homo sapiens
[8] = system: BJ; assay: cells; format: functional, cell-based; settings: Homo sapiens
[9] = system: BJ; assay: BJ-TERT-LT-ST fibroblast viability loss – cell-based, RAS-independent, luminescence, dose response (AID 1935); format: functional; settings: Homo sapiens;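 note: BJ fibroblasts immortalized with TERT plus LT and ST oncogenes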
[10] = DRD fibroblast viability loss – cell-based, non-viral oncogenic, luminescence, dose response (AID 1934); format: functional; settings: Homo sapiens
[11] = system: BJ; assay: growth inhibition of engineered Ras-driven BJ cells – cell-based, alamar blue fluorescence, cherrypicked samples, dose response (AID 2631); format: functional; settings: Homo sapiens;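 note: confirmatory dose-response assay in RAS-dependent BJ fibroblasts engineered with TERT, LT and ST, with cytotoxicity read by fluorescence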
[12] = system: Streptococcus; assay: GAS UMAA2166 growth inhibition – luminescence, BacTiterGlo, counter-screen for streptokinase expression inhibitor project, dose response (AID 1915); format: functional, organism-based;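 note: potency for reduction of bacterial viability or growth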
[13] = target: T3, Latent membrane protein 1 (Human herpesvirus 4 (strain B95-8), UniProt P03230); assay: LMP1 TES1 pathway selectivity over dsRED control – imaging, HEK293T, dual-color eGFP/dsRED, cherry-picks, selectivity assay for LMP1 NF-kB inhibitor project, dose response (AID 588398); format: functional, cell-based
T3 sequence (P03230 whole entry): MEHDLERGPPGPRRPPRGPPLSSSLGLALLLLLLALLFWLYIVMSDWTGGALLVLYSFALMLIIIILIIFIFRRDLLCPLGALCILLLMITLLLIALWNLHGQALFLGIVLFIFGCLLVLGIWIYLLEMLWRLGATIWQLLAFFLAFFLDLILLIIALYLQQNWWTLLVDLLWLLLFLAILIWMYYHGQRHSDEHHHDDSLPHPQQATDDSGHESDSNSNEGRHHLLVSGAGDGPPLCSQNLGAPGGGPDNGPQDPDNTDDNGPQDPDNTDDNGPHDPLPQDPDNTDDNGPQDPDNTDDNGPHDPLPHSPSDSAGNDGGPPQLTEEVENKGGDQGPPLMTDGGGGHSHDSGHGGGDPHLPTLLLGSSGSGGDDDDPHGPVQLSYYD

[14] = system: Streptococcus sp. 'group A'; assay: Streptococcus pyogenes SK(-)GAS viability under kanamycin – luminescence, BacTiterGlo, confirmation, counter-screen for streptokinase expression inhibitor project, dose response (AID 1900); format: functional, organism-based
[15] = system: INS1; assay: INS-1E survival protection against cytokine death – cell-based, luminescence, retest, dose response (AID 449756); format: functional; settings: Rattus norvegicus, INS1;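 note: cell death triggered by IL-1 beta plus TNF-alpha plus IFN-gamma mixture; protective hits raise ATP signal compared with cytokine alone wells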
[16] = target: Nonstructural protein 1 (Influenza A virus, UniProt Q194T2); format: functional, Influenza A virus (A/California/07/2009(H1N1))
[17] = Luminescence-based counterscreen assay for KLF5 inhibitors: dose response cell-based high throughput screening assay to identify cytotoxic compounds using the IEC-6 intestinal epithelial cell line. [Related pubchem assays: 1700 (Primary screen.), 1834 (Confirmation screen.), 1858 (Summary AID.), 1905 (Counterscreen.)]; format: functional

Nonstructural protein 1, sequence (Q194T2 whole entry): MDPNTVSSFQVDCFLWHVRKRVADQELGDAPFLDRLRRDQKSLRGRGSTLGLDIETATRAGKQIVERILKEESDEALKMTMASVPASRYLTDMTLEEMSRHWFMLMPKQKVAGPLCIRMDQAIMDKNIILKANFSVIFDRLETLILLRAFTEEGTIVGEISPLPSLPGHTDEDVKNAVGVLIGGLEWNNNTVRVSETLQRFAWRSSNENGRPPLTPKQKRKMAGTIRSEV
Mitochondrial peptide methionine sulfoxide reductase, sequence (P54149 whole entry): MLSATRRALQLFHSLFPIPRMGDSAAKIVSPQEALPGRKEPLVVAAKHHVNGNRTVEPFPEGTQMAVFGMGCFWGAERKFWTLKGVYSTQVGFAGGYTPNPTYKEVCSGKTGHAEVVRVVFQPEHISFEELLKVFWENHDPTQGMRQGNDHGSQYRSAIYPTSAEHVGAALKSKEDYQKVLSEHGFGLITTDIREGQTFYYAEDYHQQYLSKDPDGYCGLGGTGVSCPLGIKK

C[C@@H]1CN([C@@H](C)CO)C(=O)Cc2cc(NC(=O)Nc3ccc(F)cc3)ccc2O[C@@H]1CN(C)Cc1ccc(C(=O)Nc2ccccc2N)cc1
AC50 [1]: 2.16 µM (active)

CCN(CC)CCC(=O)N1C/C(=C/c2ccccc2)C(=O)/C(=C\c2ccccc2)C1
AC50 [2]: 4.72 µM (active) | AC50 [3]: 4.89 µM (active) | IC50 [4]: 3.5 µM (active) | IC50 [5]: 111 µM (active)

CCOC(=O)/C(C#N)=C/Nc1ccccc1OC
IC50 [6]: 155 µM (inactive)

Cc1ccc(/C=C2\SC(=S)N(CCCC(=O)N3CCOCC3)C2=O)cc1
EC50 [7]: 7.06 µM (inconclusive) | EC50 [8]: > 150 µM (not active) | EC50 [9]: > 150 µM (inconclusive) | EC50 [10]: 15.3 µM (active) | EC50 [11]: > 66.7 µM (inactive)

C[C@H](CO)N1C[C@H](C)[C@H](CN(C)Cc2ccc3c(c2)OCO3)Oc2c(NC(=O)c3nc4ccccc4s3)cccc2C1=O
AC50 [1]: 4.58 µM (active)

O=C(N/N=C/c1cc(Cl)ccc1O)c1cccnc1
EC50 [12]: 7.97 µM (active) | AC50 [13]: 128 µM (active) | EC50 [14]: 1.81 µM (active) | AC50 [15]: 1.71 µM (active) | IC50 [16]: 5.8 µM (active) | IC50 [17]: > 1.48 µM (active)
